Test results published in ChEMBL document CHEMBL4476872, “Inhibitors of cellular metabolic processes” (2018).

Target: S-adenosylmethionine synthase isoform type-2 (Homo sapiens, UniProt P31153)
Assay: Inhibition of recombinant His6-tagged MAT2A (unknown origin) expressed in SF9 insect cells using L-Met as substrate preincubated for 60 mins followed by substrate and ATP addition and measured after 60 mins by spectrophotometric analysis

Sequence of S-adenosylmethionine synthase isoform type-2 (P31153 whole entry, canonical isoform): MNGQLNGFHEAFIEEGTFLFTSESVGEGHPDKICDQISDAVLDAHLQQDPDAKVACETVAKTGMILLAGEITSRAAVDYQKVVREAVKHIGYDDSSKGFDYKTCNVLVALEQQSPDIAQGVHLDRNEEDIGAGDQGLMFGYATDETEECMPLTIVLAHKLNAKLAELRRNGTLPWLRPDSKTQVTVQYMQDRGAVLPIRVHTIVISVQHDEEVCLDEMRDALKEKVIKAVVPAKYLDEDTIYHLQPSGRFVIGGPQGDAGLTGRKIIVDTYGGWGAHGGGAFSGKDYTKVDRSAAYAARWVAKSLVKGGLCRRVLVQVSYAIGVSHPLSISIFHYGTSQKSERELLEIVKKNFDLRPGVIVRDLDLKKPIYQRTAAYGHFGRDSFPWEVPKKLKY

Compound	IC50 [nM]
Cc1[nH]c2c(N3CCCCC3)c(-c3ccccc3)nn2c(=O)c1-c1ccccc1	100 to 1000
COC(=O)Cc1nc2ccc(-c3c(C)[nH]c4c(-c5ccccc5)c(-c5ccccc5)nn4c3=O)cc2s1	< 100
Cc1[nH]c2c(-c3ccccc3)c(-c3ccccc3)nn2c(=O)c1-c1ccc(OCC(=O)N(C)C)cc1	100 to 1000
COc1ccc(-c2c(CC#N)[nH]c3c(-c4ccccc4)c(-c4ccccc4)nn3c2=O)cc1	100 to 1000
